{"source": "patent EP4722207A1", "about": "“OXOISOINDOLINYL-SUBSTITUTED TETRAHYDROPYRIMIDINEDIONE DERIVATIVE AND USE THEREOF” (Gluetacs Therapeutics (Shanghai) Co., Ltd., priority 2023, dated 2024)", "assay_type_in_all_cases": "cell-based", "conditions_in_all_cases": "compounds at 50 nM and 500 nM, 24 hours", "key": {"[1]": {"target": "T1, WEE1 (Homo sapiens, UniProt P30291+Q96SW2)", "T1 construct": "effects of the compounds of the present disclosure on the expression of target proteins in cells; endogenous in cells; host or cells: human PBMCs (hPBMCs)", "assay": "Western-blot assay, substrate protein degradation in hPBMCs: WEE1", "method": "(§1) Conventional Western blot assay was performed to evaluate the effects of the compounds of the present disclosure on the expression of target proteins in cells. • (1) Cell Seeding and Protein Harvesting: Human peripheral blood mononuclear cells (hPBMCs) at a density of 1x10^6 cells/mL were thawed according to the PBMC Recovery Protocol (Milecell Biotechnologies Inc, Shanghai). […] After 24 hours of compounds treatment, cells were harvested and lysed in RIPA protein lysate containing protease inhibitors on ice for 30 min, followed by centrifugation. The supernatant was aspirated as the extracted total cell protein. The protein concentration of the supernatant was determined using the conventional BCA (Bicinchoninic Acid) assay. • (2) To the collected supernatant, 5X SDS sample loading buffer was added, followed by denaturation at 95°C for 5 minutes. The denatured samples were then separated by SDS-PAGE electrophoresis on a polyacrylamide gel. Proteins were transferred to a nitrocellulose membrane (0.45 µm NC membrane), blocked with blocking buffer at room temperature for 1 hour, and subjected to antibody incubation and development procedures according to the antibody manufacturer's instructions (Cell Signaling Technology).\n(§2) Half-Maximal Degradation Concentration value (the drug concentration required for degrading proteins by 50%, abbreviated as DC50) reads method: comparing the grayscale values of Western blot bands from drug-treated samples with those from blank DMSO-treated controls, and identifying the drug concentration range at which the grayscale value is half that of the DMSO-treated control bands.\n(§3) DC50 values can be calculated using ImageJ software to measure grayscale values of Western blot bands from drug-treated samples. The concentration-response curve is fitted to estimate the drug concentration corresponding to half the grayscale value.\n(§4) Target protein remaining (%) refers to the percentage of target protein remaining in cells after treatment with protein degrader compounds.\n(§5) Calculation method for target protein remaining (%): Use ImageJ software to measure grayscale values of Western blot bands from drug (protein degrader)-treated samples. The grayscale value of drug-treated bands is divided by that of internal control protein bands, and the resulting quotient is normalized to obtain the relative percentage of remaining target protein after protein degrader treatment. Target protein degradation rate(%) = 1−target protein remaining(%). [formula]"}, "[2]": {"target": "T2, IKZF1 (Homo sapiens, UniProt Q13422+Q96SW2)", "T2 construct": "effects of the compounds of the present disclosure on the expression of target proteins in cells; endogenous in cells; host or cells: human PBMCs (hPBMCs)", "T2 sequence (Q13422 whole entry)": "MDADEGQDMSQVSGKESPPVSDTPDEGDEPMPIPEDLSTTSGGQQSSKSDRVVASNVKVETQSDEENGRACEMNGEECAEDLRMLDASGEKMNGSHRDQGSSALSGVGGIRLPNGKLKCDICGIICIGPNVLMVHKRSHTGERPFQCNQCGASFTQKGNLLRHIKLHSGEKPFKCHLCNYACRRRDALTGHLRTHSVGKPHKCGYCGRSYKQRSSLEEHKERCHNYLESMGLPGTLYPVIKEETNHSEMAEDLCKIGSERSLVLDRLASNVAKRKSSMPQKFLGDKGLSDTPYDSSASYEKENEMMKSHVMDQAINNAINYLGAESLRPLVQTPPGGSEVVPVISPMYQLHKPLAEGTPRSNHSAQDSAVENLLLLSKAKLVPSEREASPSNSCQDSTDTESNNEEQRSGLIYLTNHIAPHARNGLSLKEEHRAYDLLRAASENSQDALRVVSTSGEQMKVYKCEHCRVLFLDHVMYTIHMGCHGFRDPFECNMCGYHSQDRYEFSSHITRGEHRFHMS", "T2 sequence (Q96SW2 whole entry)": "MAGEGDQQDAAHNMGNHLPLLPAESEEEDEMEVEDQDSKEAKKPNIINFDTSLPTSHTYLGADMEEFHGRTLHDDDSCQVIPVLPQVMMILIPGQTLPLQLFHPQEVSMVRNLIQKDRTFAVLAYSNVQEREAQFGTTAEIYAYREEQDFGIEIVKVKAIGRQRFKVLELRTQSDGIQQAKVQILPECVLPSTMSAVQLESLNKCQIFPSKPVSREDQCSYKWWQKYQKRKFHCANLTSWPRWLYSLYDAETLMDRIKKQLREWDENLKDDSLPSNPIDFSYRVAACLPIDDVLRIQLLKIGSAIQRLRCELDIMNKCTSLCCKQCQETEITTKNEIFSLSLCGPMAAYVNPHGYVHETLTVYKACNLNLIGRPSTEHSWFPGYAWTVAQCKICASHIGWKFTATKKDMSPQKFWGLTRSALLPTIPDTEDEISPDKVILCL", "T2 sequence (Q16531 whole entry partner)": "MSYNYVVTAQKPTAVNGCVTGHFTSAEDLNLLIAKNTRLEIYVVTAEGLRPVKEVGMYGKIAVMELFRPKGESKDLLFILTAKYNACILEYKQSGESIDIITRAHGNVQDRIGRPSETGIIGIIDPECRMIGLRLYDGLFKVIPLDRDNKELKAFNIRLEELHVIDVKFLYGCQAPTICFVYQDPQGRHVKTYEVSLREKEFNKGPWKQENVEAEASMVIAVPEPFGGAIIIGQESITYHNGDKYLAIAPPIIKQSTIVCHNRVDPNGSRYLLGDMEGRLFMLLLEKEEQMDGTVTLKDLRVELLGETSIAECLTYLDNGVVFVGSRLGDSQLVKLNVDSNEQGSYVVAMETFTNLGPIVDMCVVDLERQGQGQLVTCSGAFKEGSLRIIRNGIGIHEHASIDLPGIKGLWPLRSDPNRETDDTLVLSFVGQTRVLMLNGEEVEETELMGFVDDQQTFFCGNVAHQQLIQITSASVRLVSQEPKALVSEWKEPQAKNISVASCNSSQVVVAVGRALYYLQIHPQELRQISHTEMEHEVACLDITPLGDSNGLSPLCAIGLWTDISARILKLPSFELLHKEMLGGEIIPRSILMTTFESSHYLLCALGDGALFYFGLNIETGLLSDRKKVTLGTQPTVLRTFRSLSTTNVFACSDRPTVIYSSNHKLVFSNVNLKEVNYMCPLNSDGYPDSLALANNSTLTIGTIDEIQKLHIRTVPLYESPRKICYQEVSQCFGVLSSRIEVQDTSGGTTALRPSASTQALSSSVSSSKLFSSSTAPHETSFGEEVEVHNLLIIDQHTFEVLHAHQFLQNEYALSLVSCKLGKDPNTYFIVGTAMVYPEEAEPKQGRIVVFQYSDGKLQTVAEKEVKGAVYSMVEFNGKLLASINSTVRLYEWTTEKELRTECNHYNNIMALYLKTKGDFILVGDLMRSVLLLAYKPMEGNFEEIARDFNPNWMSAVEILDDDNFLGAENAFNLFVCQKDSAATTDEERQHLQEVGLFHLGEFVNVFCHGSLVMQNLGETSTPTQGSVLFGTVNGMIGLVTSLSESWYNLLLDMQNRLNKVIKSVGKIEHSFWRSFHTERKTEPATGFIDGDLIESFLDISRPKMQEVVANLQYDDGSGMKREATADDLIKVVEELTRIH", "assay": "Western-blot assay, substrate protein degradation in hPBMCs: IKZF1", "method": "as §1, §2, §3, §4, §5"}, "[3]": {"target": "T3, IKZF2 (Homo sapiens, UniProt Q96SW2+Q9UKS7)", "T3 construct": "effects of the compounds of the present disclosure on the expression of target proteins in cells; endogenous in cells; host or cells: human PBMCs (hPBMCs)", "T3 sequence (Q9UKS7 whole entry)": "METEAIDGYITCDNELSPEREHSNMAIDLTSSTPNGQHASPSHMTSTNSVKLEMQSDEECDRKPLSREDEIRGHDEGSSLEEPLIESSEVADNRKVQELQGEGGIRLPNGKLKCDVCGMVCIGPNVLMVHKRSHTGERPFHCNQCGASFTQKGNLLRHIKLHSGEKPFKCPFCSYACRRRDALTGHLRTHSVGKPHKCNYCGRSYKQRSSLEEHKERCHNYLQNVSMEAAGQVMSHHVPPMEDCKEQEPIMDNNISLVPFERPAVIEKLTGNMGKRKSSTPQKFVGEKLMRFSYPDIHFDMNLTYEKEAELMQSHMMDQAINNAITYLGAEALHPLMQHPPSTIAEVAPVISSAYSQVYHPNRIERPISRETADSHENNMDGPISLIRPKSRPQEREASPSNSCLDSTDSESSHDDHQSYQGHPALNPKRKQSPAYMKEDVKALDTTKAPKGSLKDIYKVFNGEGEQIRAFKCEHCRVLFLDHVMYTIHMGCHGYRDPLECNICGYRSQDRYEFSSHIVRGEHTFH", "T3 sequence (Q96SW2 whole entry)": "as the sequence (Q96SW2 whole entry) above", "T3 sequence (Q16531 whole entry partner)": "as the sequence (Q16531 whole entry partner) above", "assay": "Western-blot assay, substrate protein degradation in hPBMCs: IKZF2", "method": "as §1, §2, §3, §4, §5"}, "[4]": {"target": "T4, IKZF3 (Homo sapiens, UniProt Q96SW2+Q9UKT9)", "T4 construct": "effects of the compounds of the present disclosure on the expression of target proteins in cells; endogenous in cells; host or cells: human PBMCs (hPBMCs)", "T4 sequence (Q9UKT9 whole entry)": "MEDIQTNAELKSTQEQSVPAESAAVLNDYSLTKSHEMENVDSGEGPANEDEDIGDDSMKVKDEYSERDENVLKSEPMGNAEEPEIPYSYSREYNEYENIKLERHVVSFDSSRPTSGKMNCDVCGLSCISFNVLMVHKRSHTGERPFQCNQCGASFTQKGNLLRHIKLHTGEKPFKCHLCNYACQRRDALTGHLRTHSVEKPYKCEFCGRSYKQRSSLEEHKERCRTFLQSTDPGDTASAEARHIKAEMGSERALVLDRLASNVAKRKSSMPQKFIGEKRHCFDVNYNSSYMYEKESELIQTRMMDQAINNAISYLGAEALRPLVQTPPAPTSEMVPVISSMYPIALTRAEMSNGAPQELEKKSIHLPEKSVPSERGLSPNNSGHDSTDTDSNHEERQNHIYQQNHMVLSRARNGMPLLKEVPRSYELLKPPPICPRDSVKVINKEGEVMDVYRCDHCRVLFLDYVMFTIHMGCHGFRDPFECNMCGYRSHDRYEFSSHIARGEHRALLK", "T4 sequence (Q96SW2 whole entry)": "as the sequence (Q96SW2 whole entry) above", "T4 sequence (Q16531 whole entry partner)": "as the sequence (Q16531 whole entry partner) above", "assay": "Western-blot assay, substrate protein degradation in hPBMCs: IKZF3", "method": "as §1, §2, §3, §4, §5"}, "[5]": {"target": "T5, CK1α (Homo sapiens, UniProt P48729+Q96SW2)", "T5 construct": "effects of the compounds of the present disclosure on the expression of target proteins in cells; endogenous in cells; host or cells: human PBMCs (hPBMCs)", "T5 sequence (P48729 whole entry)": "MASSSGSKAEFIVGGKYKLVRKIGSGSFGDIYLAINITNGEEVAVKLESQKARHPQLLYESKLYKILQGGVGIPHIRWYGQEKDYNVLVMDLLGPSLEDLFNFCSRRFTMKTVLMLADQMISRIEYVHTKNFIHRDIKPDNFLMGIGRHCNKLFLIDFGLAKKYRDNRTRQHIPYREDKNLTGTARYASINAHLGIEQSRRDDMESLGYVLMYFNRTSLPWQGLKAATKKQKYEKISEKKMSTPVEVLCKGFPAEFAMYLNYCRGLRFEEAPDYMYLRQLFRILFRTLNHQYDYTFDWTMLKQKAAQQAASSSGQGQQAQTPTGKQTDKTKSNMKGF", "T5 sequence (Q96SW2 whole entry)": "as the sequence (Q96SW2 whole entry) above", "T5 sequence (Q16531 whole entry partner)": "as the sequence (Q16531 whole entry partner) above", "assay": "Western-blot assay, substrate protein degradation in hPBMCs: CK1α", "method": "as §1, §2, §3, §4, §5"}, "[6]": {"target": "T6, GSPT1 (Homo sapiens, UniProt P15170+Q96SW2)", "T6 construct": "effects of the compounds of the present disclosure on the expression of target proteins in cells; endogenous in cells; host or cells: human PBMCs (hPBMCs)", "T6 sequence (P15170 whole entry)": "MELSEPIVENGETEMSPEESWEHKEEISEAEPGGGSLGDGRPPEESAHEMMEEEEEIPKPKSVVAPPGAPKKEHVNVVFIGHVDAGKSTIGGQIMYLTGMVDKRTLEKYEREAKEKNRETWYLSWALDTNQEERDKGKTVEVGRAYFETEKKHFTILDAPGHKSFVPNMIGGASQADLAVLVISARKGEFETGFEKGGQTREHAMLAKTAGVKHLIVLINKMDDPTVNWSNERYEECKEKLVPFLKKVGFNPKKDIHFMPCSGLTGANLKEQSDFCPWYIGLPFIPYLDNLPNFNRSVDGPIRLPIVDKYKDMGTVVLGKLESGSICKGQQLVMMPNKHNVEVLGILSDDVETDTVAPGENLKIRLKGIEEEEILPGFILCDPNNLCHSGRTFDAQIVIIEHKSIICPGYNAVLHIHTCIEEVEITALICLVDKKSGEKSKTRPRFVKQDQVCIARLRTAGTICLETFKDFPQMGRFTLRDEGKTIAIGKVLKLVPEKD", "T6 sequence (Q96SW2 whole entry)": "as the sequence (Q96SW2 whole entry) above", "T6 sequence (Q16531 whole entry partner)": "as the sequence (Q16531 whole entry partner) above", "assay": "Western-blot assay, substrate protein degradation in hPBMCs: GSPT1", "method": "as §1, §2, §3, §4, §5"}}, "data": [{"compound": "O=C1CCN(N2Cc3cc(CN4CCN(C(c5ccccc5)c5ccncc5)CC4)ccc3C2=O)C(=O)N1", "note": "(stereo not drawn) [GT-04891, 1-(1-oxo-5-((4-(phenyl(pyridin-4-yl)methyl)piperazin-1-yl)methyl)isoindolin-2-yl)dihydropyrimidine-2,4(1H,3H)-dione]", "values": [{"measurement": "WEE1 substrate protein remaining %", "setting": "[1]", "result": "B (\"B\" is defined as 80%< substrate protein remaining %≤ 100%)"}, {"measurement": "IKZF1 substrate protein remaining %", "setting": "[2]", "result": "A (\"A\" is defined as 0% ≤ substrate protein remaining % ≤ 80%)"}, {"measurement": "IKZF2 substrate protein remaining %", "setting": "[3]", "result": "A (\"A\" is defined as 0% ≤ substrate protein remaining % ≤ 80%)"}, {"measurement": "IKZF3 substrate protein remaining %", "setting": "[4]", "result": "B (\"B\" is defined as 80%< substrate protein remaining %≤ 100%)"}, {"measurement": "CK1α substrate protein remaining %", "setting": "[5]", "result": "B (\"B\" is defined as 80%< substrate protein remaining %≤ 100%)"}, {"measurement": "GSPT1 substrate protein remaining %", "setting": "[6]", "result": "A (\"A\" is defined as 0% ≤ substrate protein remaining % ≤ 80%)"}]}, {"compound": "O=C1CCN(N2Cc3cc(CN4CCN(C(c5ccc(Cl)cc5)c5ccc(Cl)cc5)CC4)ccc3C2=O)C(=O)N1", "note": "[GT-04895, 1-(5-((4-(bis(4-chlorophenyl)methyl)piperazin-1-yl)methyl)-1-oxoisoindolin-2-yl)dihydropyrimidine-2,4(1H,3H)-dione]", "values": [{"measurement": "WEE1 substrate protein remaining %", "setting": "[1]", "result": "B (\"B\" is defined as 80%< substrate protein remaining %≤ 100%)"}, {"measurement": "IKZF1 substrate protein remaining %", "setting": "[2]", "result": "A (\"A\" is defined as 0% ≤ substrate protein remaining % ≤ 80%)"}, {"measurement": "IKZF2 substrate protein remaining %", "setting": "[3]", "result": "A (\"A\" is defined as 0% ≤ substrate protein remaining % ≤ 80%)"}, {"measurement": "IKZF3 substrate protein remaining %", "setting": "[4]", "result": "B (\"B\" is defined as 80%< substrate protein remaining %≤ 100%)"}, {"measurement": "CK1α substrate protein remaining %", "setting": "[5]", "result": "B (\"B\" is defined as 80%< substrate protein remaining %≤ 100%)"}, {"measurement": "GSPT1 substrate protein remaining %", "setting": "[6]", "result": "A (\"A\" is defined as 0% ≤ substrate protein remaining % ≤ 80%)"}]}, {"compound": "O=C1CCN(N2Cc3cc(CN4C[C@@H]5C[C@H]4CN5C(c4ccccc4)c4ccccc4)ccc3C2=O)C(=O)N1", "note": "[GT-04938, 1-(5-(((1S,4S)-5-benzhydryl-2,5-diazabicyclo[2.2.1]heptan-2-yl)methyl)-1-oxoisoindolin-2-yl)dihydropyrimidine-2,4(1H,3H)-dione]", "values": [{"measurement": "WEE1 substrate protein remaining %", "setting": "[1]", "result": "A (\"A\" is defined as 0% ≤ substrate protein remaining % ≤ 80%)"}, {"measurement": "IKZF1 substrate protein remaining %", "setting": "[2]", "result": "B (\"B\" is defined as 80%< substrate protein remaining %≤ 100%)"}, {"measurement": "IKZF2 substrate protein remaining %", "setting": "[3]", "result": "A (\"A\" is defined as 0% ≤ substrate protein remaining % ≤ 80%)"}, {"measurement": "IKZF3 substrate protein remaining %", "setting": "[4]", "result": "B (\"B\" is defined as 80%< substrate protein remaining %≤ 100%)"}, {"measurement": "CK1α substrate protein remaining %", "setting": "[5]", "result": "B (\"B\" is defined as 80%< substrate protein remaining %≤ 100%)"}, {"measurement": "GSPT1 substrate protein remaining %", "setting": "[6]", "result": "A (\"A\" is defined as 0% ≤ substrate protein remaining % ≤ 80%)"}]}, {"compound": "Cc1ccc(N2CCN(Cc3ccc4c(c3)CN(N3CCC(=O)NC3=O)C4=O)CC2)s1", "note": "[GT-05083, 1-(5-((4-(5-methylthiophen-2-yl)piperazin-1-yl)methyl)-1-oxoisoindolin-2-yl)dihydropyrimidine-2,4(1H,3H)-dione]", "values": [{"measurement": "WEE1 substrate protein remaining %", "setting": "[1]", "result": "B (\"B\" is defined as 80%< substrate protein remaining %≤ 100%)"}, {"measurement": "IKZF1 substrate protein remaining %", "setting": "[2]", "result": "B (\"B\" is defined as 80%< substrate protein remaining %≤ 100%)"}, {"measurement": "IKZF2 substrate protein remaining %", "setting": "[3]", "result": "A (\"A\" is defined as 0% ≤ substrate protein remaining % ≤ 80%)"}, {"measurement": "IKZF3 substrate protein remaining %", "setting": "[4]", "result": "B (\"B\" is defined as 80%< substrate protein remaining %≤ 100%)"}, {"measurement": "CK1α substrate protein remaining %", "setting": "[5]", "result": "B (\"B\" is defined as 80%< substrate protein remaining %≤ 100%)"}, {"measurement": "GSPT1 substrate protein remaining %", "setting": "[6]", "result": "B (\"B\" is defined as 80%< substrate protein remaining %≤ 100%)"}]}, {"compound": "Cc1ccsc1N1CCN(Cc2ccc3c(c2)CN(N2CCC(=O)NC2=O)C3=O)CC1", "note": "[GT-05084, 1-(5-((4-(3-methylthiophen-2-yl)piperazin-1-yl)methyl)-1-oxoisoindolin-2-yl)dihydropyrimidine-2,4(1H,3H)-dione]", "values": [{"measurement": "WEE1 substrate protein remaining %", "setting": "[1]", "result": "B (\"B\" is defined as 80%< substrate protein remaining %≤ 100%)"}, {"measurement": "IKZF1 substrate protein remaining %", "setting": "[2]", "result": "B (\"B\" is defined as 80%< substrate protein remaining %≤ 100%)"}, {"measurement": "IKZF2 substrate protein remaining %", "setting": "[3]", "result": "A (\"A\" is defined as 0% ≤ substrate protein remaining % ≤ 80%)"}, {"measurement": "IKZF3 substrate protein remaining %", "setting": "[4]", "result": "B (\"B\" is defined as 80%< substrate protein remaining %≤ 100%)"}, {"measurement": "CK1α substrate protein remaining %", "setting": "[5]", "result": "B (\"B\" is defined as 80%< substrate protein remaining %≤ 100%)"}, {"measurement": "GSPT1 substrate protein remaining %", "setting": "[6]", "result": "B (\"B\" is defined as 80%< substrate protein remaining %≤ 100%)"}]}]}
